Like-named read-outs stand apart in the source and are kept apart here.
Experiments:
Assay type in all cases: in vivo
[1] = system: Macrosiphum Euphorbiae; assay: Biological activity on Macrosiphum euphorbiae (aphides), potato seedlings sprayed with aqueous dispersion
Description: Biological Activity on Macrosiphum Euphorbiae (Aphides)
Potato seedlings, cultivated in pots, were infested with adult aphide females and, after a few hours, were sprayed with an aqueous dispersion of the compounds listed in Table 6. The mortality percentage was determined 24 hours after the treatment (on control non-treated seedlings, the mortality percentage was 0).
(§1) To show the variation in activity from one compound to another, depending on the species used, the activities of compounds according to this invention were investigated at different concentrations, expressed as percent of active principle, on various infesting species. The mortality percentage was computed in the same way as in the preceding examples.

[2] = system: Tetranychus Urticae; assay: Biological activity on Tetranychus urticae eggs, bean leaf discs
From the text: Biological Activity on Tetranychus Urticae (Acari)
Small discs of bean leaves were infested with acarus eggs and successively treated by spraying with an aqueous dispersion of a compound of this invention and Aminocarb as a comparison, at concentrations of 0.1 and 0.01%. The mortality percentage of the control, untreated discs, was zero.
as §1

[3] = system: Spodoptera Littoralis; assay: Biological activity on Spodoptera littoralis larvae, sprayed cut tobacco leaves
From the text: Biological Activity on Spodoptera Littoralis (Lepidoptera)
Cut tobacco leaves were sprayed with a 0.1% aqueous dispersion of compounds according to the present invention, shown in Table 12. After drying, the leaves were infested with 5-day old lepidopter larvae. The mortality percentage of the control was zero.
as §1

[4] = system: Pieris Brassicae; assay: Biological activity on Pieris brassicae larvae, sprayed cut cauliflower leaves
From the text: Biological Activity on Pieris Brassicae (Lepidoptera)
Cut leaves of cauliflower were sprayed with an aqueous dispersion of compound according to this invention at a 0.1% concentration. After drying, they were infested with 5-day old larvae. The mortality percentage of the control, untreated leaves, was zero.
as §1

[5] = system: Pieris Brassicae; assay: Persistence of insecticidal activity in the field, Pieris brassicae on cauliflower plants; conditions: 0.5 percent; for mortality at 0.5 %: read-out: Mortality Percent of Pieris Brassicae Larvae
From the text: The persistence of insecticidal activity in the field using the insect Pieris brassicae was examined as follows:
Cauliflower plants grown under natural conditions in the field were sprinkled with an aqueous suspension of compounds according to this invention identified hereinabove as M 7361 and M 8157. For purposes of comparison, cauliflower plants were sprinkled with an aqueous suspension of a compound according to U.S. Pat. No. 3,819,678, identified hereinabove as M 7481.
After the respective time periods shown in Table 15, leaves of the sprinkled plants were picked and brought to the laboratory where they were infested with 10-day old larvae of Pieris brassicae and then kept under observation. The percent of mortality of the insects was determined 48 hours after infestation in all cases. The percent mortality of the control, unsprinkled cauliflower leaves, was zero.

[6] = system: Leptinotarsa Decimlineata; assay: Biological activity on Leptinotarsa decemlineata larvae, sprayed potato seedlings; conditions: read-out: % mort. Leptinot. Decemlin.
From the text: Biological Activity on Leptinotarsa Decimlineata Coleoptera
Potato seedlings cultivated in pots were infested with 4-day old larvae and sprayed with an aqueous dispersion of the compounds according to this invention and Aminocarb as a comparison at doses of […]; respectively. The mortality percentage of the control, untreated seedlings, was zero.
as §1

[7] = system: Leptinotarsa decemlineata; assay: Persistence of insecticidal activity in the field, Leptinotarsa decemlineata on potato plants; conditions: 0.2 percent
From the text: The persistence of insecticidal activity in the field using the insect Leptinotarsa decemlineata was examined as follows:
Potato plants grown in the field under natural conditions were sprinkled with an aqueous suspension of compound M 7361 which is according to this invention and identified hereinabove. For purposes of comparison, similarly grown potato plants were sprinkled with an aqueous suspension of the compounds M 7488 and M 7481, respectively, both according to U.S. Pat. No. 3,819,678 and identified above.
After the time periods shown in Table 17, leaves of the sprinkled plants were picked and brought to the laboratory where they were infested with 10 day-old larvae of Leptinotarsa decemlineata and then kept under observation. After 48 hours, the percent of mortality of the insects was determined. The mortality percent of the control unsprinkled leaves was zero.

[8] = system: Spodoptera Littoralis; assay: Persistence of insecticidal activity in the field, Spodoptera littoralis on Ricinus plants; conditions: one percent, read-out: Mortality Percent of Spodoptera Littoralis Larvae
From the text: The persistence of insecticidal activity in the field using the insect Spodoptera littoralis was examined as follows:
Ricinus plants grown in the field under natural conditions were sprinkled with an aqueous suspension of the insecticidal compounds according to this invention designated hereinabove as M 7361 and M 8157. For purposes of comparison, an aqueous suspension of each of M 7481 and M 7488, according to U.S. Pat. No. 3,819,678 and identified above, was sprinkled on similarly grown Ricinus plants.
After the time periods shown in Table 16, leaves of the sprinkled plants were picked and brought to the laboratory where they were infested with 10-day old larvae of Spodoptera littoralis and then kept under observation. The mortality percent of the control unsprinkled leaves was zero.

[9] = system: Culex Pipiens; assay: Biological activity on Culex pipiens (mosquito larvae in aqueous dispersion); conditions: read-out: % mort. Culex Pipiens
From the text: Biological Activity on Culex Pipiens (Diptera)
Mosquito larvae of the third and fourth ages were introduced into glass pots containing an aqueous dispersion of the compounds shown at 2 ppm and 0.2 ppm.
as §1

[10] = system: Musca Domestica; assay: Biological activity on Musca domestica, topical application to adults; conditions: 24 h, read-out: Percent of Mortality
Description: Biological Activity on Musca Domestica (Diptera)
Four day old adults were treated by topical application through a microsyringe with 1 mm^3 of an acetonic solution of the compounds shown in such concentrations that they received doses of 5γ/insect; 2γ/insect; 0.5γ/insect of active principle. The mortality percentage 24 hours after the treatment is reported in Table 8 (mortality of insects treated with 1 mm^3 of acetone = 0).

[11] = foliar, read-out: Percent of Mortality
[12] = 120 h, 5 days after field treatment
[13] = 216 h, 9 days after field treatment
[14] = 336 h, 14 days after field treatment
[15] = 408 h, 17 days after field treatment
[16] = 528 h, 22 days after field treatment
[17] = read-out: % mort. Macrosiphum Euphorbiae
[18] = 96 h, 4 days after field treatment
[19] = 168 h, 7 days after field treatment
[20] = 264 h, 11 days after field treatment
[21] = 432 h, 18 days after field treatment
[22] = 600 h, 25 days after field treatment

Row | Compound | mortality at 0.5 % ([5]; 2 hours after field treatment) | mortality at 0.5 % [5, 12] | mortality at 0.5 % [5, 13] | mortality at 0.5 % [5, 14] | mortality at 0.5 % [5, 15] | mortality at 0.5 % [5, 16] | mortality at 0.2 % ([7]; 2 hours after field treatment) | mortality at 0.2 % [7, 18] | mortality at 0.2 % [7, 19] | mortality at 0.2 % [7, 20] | mortality at 0.2 % [7, 21] | mortality at 0.2 % [7, 22] | mortality at 1 % [8, 12] | mortality at 1 % [8, 20] | mortality at 1 % [8, 14] | mortality at 1 % [8, 21] | mortality at 1 % [8, 22] | mortality at 1 % ([8]; 2 hours after field treatment) | other results
1 | CNC(=O)Oc1cc(C)ccc1NCC(Cl)=C(Cl)Cl [M 6773, N-methylcarbamate of 3-methyl-6-(2,3,3-trichloroallylamino)-phenol] | – | – | – | – | – | – | – | – | – | – | – | – | – | – | – | – | – | – | mortality at 0.01 % ([1]; 24 h, read-out: Mortality Percent): 75%
2 | CNC(=O)Oc1ccc(NCC(Cl)=C(Cl)Cl)c(C)c1 [M 6737] | – | – | – | – | – | – | – | – | – | – | – | – | – | – | – | – | – | – | mortality at 0.01 % [2, 11]: 80%; mortality at 0.1 % [2, 11]: 100%; mortality at 0.1 % ([3]; 0.1 percent, larvae, 48 hours, read-out: Percent of Mortality): 100%; mortality at 0.1 % ([4]; 0.1 percent, larvae, read-out: Percent of Mortality): 100%
3 | CNC(=O)Oc1cc(C)c(NCC=C(Cl)Cl)c(C)c1 [M 7361] | 100% | 100% | 100% | 100% | 100% | 100% | 100% | 100% | 100% | 100% | 100% | 73% | 100% | 100% | 100% | 100% | 100% | 100% | mortality at 1 % ([2]; topical, read-out: % mort. Tetran. Urt. eggs): 13%; period for which insecticidal activity is fully retained in the field [5]: at least 22 days; mortality at 0.01 % [6]: 52%; mortality at 0.1 % [6]: 97%; mortality at 1 % [6]: 100%; mortality at 0.01 % ([3]; 48 h, Table 14, 0.01% a.p., read-out: % mort. Spodopt. Littoralis): 7%; mortality at 0.1 % ([3]; 48 h, Table 14, 0.1% a.p., read-out: % mort. Spodopt. Littoralis): 72%; mortality at 1 % ([3]; 48 h, Table 14, 1% a.p., read-out: % mort. Spodopt. Littoralis): 100%; mortality at 0.01 % [1, 17]: 17%; mortality at 0.1 % [1, 17]: 81%; mortality at 1 % [1, 17]: 100%; mortality at 0.01 % ([4]; Table 14, 0.01% a.p., read-out: % mort. Pieris Brassicae): 15%; mortality at 0.1 % ([4]; Table 14, 0.1% a.p., read-out: % mort. Pieris Brassicae): 97%; mortality at 1 % ([4]; Table 14, 1% a.p., read-out: % mort. Pieris Brassicae): 100%; mortality at 2 ppm [9]: 40%
4 | CNC(=O)Oc1cc(C)c(N(C)C)c(C)c1 [Zectran, reference compound] | – | – | – | – | – | – | – | – | – | – | – | – | – | – | – | – | – | – | mortality at 0.5 µg/insect [10]: 0%; mortality at 2 µg/insect [10]: 60%
5 | CNC(=O)Oc1cc(C)c(N(C)CC=C(Cl)Cl)c(C)c1 [M 7481, reference compound] | 100% | 55% | 30% | 0% | 0% | 0% | 100% | 60% | 20% | 0% | 0% | 0% | 100% | 77% | 60% | 47% | 40% | 100% | time after which totally ineffective in the field [5]: 14 days; time at which activity begins to be lost in the field [5]: 2 to 5 days
6 | CNC(=O)Oc1cc(C)c(N(CC=C(Cl)Cl)CC=C(Cl)Cl)c(C)c1 [M 7488, reference compound] | – | – | – | – | – | – | 100% | 70% | 20% | 10% | 0% | 0% | 92% | 47% | 38% | 22% | 0% | 100% | –

Source: patent US4109011A, “Insecticide carbamates of N-(polychloroallyl)-amino-phenols” (priority 1975, dated 1978)
